Test results taken from the supplement of paper PMC10307832.

Experiments:
Assay in all cases: relative viability (nuclei count vs DMSO), 5 days (fraction); higher = more cells survive
[1] = compound: COc1cc(-c2nn([C@H]3CC[C@H](N4CCN(C(C)=O)CC4)CC3)c3ncnc(N)c23)ccc1NC(=O)c1cc2ccccc2n1C + C[C@]1(O)C[C@@H](c2nc(-c3ccc4ccc(-c5ccccc5)nc4c3)c3c(N)nccn32)C1 [Linsitinib] (partner 1 µM)
Outline: (§1)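 Cells from lung cancer lines were seeded into 1536-well plates and, one day later, dosed by pin tool. Treatments were either a single drug or a fixed dose of an anchor drug with five library-drug doses (not always all listed) in √10 steps. After 5 days, nuclei were stained in a one-step fixation (final 0.05% Triton X-100, 1% formaldehyde, 1 ug/ml Hoechst) and counted on 4× images, and relative viability is the treated-to-vehicle nuclei ratio, as the median of duplicate plates.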

[2] = compound: CO[C@@H]1[C@H](N(C)C(=O)c2ccccc2)C[C@H]2O[C@]1(C)n1c3ccccc3c3c4c(c5c6ccccc6n2c5c31)C(=O)NC4 [Midostaurin] + O=C(CCCCCCC(=O)Nc1ccccc1)NO [Vorinostat] (partner 1 µM)
Outline: as §1

[3] = compound: COc1cc(-c2nn([C@H]3CC[C@H](N4CCN(C(C)=O)CC4)CC3)c3ncnc(N)c23)ccc1NC(=O)c1cc2ccccc2n1C + CS(=O)(=O)N1CCN(Cc2cc3nc(-c4cccc5[nH]ncc45)nc(N4CCOCC4)c3s2)CC1 [Pictilisib] (partner 1 µM)
Outline: as §1

[4] = compound: CO[C@@H]1[C@H](N(C)C(=O)c2ccccc2)C[C@H]2O[C@]1(C)n1c3ccccc3c3c4c(c5c6ccccc6n2c5c31)C(=O)NC4 [Midostaurin] + COc1cccc2cc(-c3nc([C@H]4CC[C@H](C(=O)O)CC4)n4ncnc(N)c34)[nH]c12 [OSI-027] (partner 0.5 µM)
Outline: as §1

[5] = compound: COc1cc(-c2nn([C@H]3CC[C@H](N4CCN(C(C)=O)CC4)CC3)c3ncnc(N)c23)ccc1NC(=O)c1cc2ccccc2n1C + CC1(C)CCC(c2ccc(Cl)cc2)=C(CN2CCN(c3ccc(C(=O)NS(=O)(=O)c4ccc(N[C@H](CCN5CCOCC5)CSc5ccccc5)c(S(=O)(=O)C(F)(F)F)c4)cc3)CC2)C1 [Navitoclax] (partner 0.5 µM)
Outline: as §1

| Cell Line | relative viability ([1]; first compound 0.0128 µM) | relative viability ([1]; first compound 0.04048 µM) | relative viability ([1]; first compound 0.128 µM) | relative viability ([1]; first compound 1.28 µM) | relative viability ([2]; first compound 0.01 µM) | relative viability ([2]; first compound 0.03162 µM) | relative viability ([2]; first compound 0.1 µM) | relative viability ([2]; first compound 0.3162 µM) | relative viability ([3]; first compound 0.0128 µM) | relative viability ([3]; first compound 0.04048 µM) | relative viability ([3]; first compound 0.128 µM) | relative viability ([3]; first compound 1.28 µM) | relative viability ([4]; first compound 0.01 µM) | relative viability ([4]; first compound 0.03162 µM) | relative viability ([4]; first compound 0.1 µM) | relative viability ([4]; first compound 0.3162 µM) | relative viability ([5]; first compound 0.0128 µM) | relative viability ([5]; first compound 0.04048 µM) | relative viability ([5]; first compound 0.128 µM) | relative viability ([5]; first compound 1.28 µM) |
| --- | --- | --- | --- | --- | --- | --- | --- | --- | --- | --- | --- | --- | --- | --- | --- | --- | --- | --- | --- | --- |
| NCI-H322M | 0.9 | 0.909 | 0.767 | 0.803 | 0.877 | 0.849 | 0.994 | 1.28 | 0.521 | 0.449 | 0.51 | 0.463 | 0.633 | 0.489 | 0.595 | 0.569 | 1.36 | 1.09 | 1.18 | 1.12 |
| NCI-H441 | 0.555 | 0.612 | 0.603 | 0.491 | 0.846 | 0.801 | 0.801 | 0.585 | 0.551 | 0.43 | 0.602 | 0.421 | 0.629 | 0.525 | 0.405 | 0.529 | 0.868 | 0.798 | 0.91 | 0.581 |
| NCI-H460 | 0.662 | 1.09 | 0.669 | 0.344 | 0.697 | 0.578 | 0.65 | 0.115 | 0.164 | 0.314 | 0.345 | 0.368 | 0.513 | 0.62 | 0.722 | 0.665 | 1.2 | 1.41 | 1.03 | 0.862 |
| NCI-H520 | 0.715 | 0.795 | 0.9 | 0.683 | 0.684 | 0.702 | 0.694 | 0.412 | 0.293 | 0.337 | 0.247 | 0.216 | 0.293 | 0.24 | 0.403 | 0.359 | 1.16 | 1.06 | 0.995 | 0.861 |
| NCI-H596 | 1.1 | 1.3 | 1.12 | 0.748 | 0.554 | 0.645 | 0.625 | 0.877 | 0.412 | 0.451 | 0.356 | 0.44 | 0.727 | 0.774 | 0.598 | 0.904 | 1.06 | 1.02 | 0.911 | 0.525 |
| NCI-H647 | 1.3 | 1.36 | 1.14 | 0.785 | 0.591 | 0.988 | 0.536 | 0.275 | 0.41 | 0.456 | 0.257 | 0.28 | 0.637 | 0.652 | 0.779 | 0.753 | 1.29 | 1.18 | 1.06 | 0.669 |
| NCI-H727 | 0.401 | – | 0.162 | 0.33 | 1.4 | 1.11 | 1.16 | 1.26 | 0.355 | – | 0.401 | 0.301 | 0.673 | 0.492 | 0.538 | 0.479 | 0.408 | – | 0.463 | 0.289 |
| NCI-H838 | 0.974 | 1.1 | 1.06 | 0.657 | 0.72 | 0.705 | 0.606 | 0.262 | 0.403 | 0.397 | 0.38 | 0.338 | 0.481 | 0.394 | 0.382 | 0.349 | 1.26 | 1.18 | 1.23 | 0.859 |
